Read-outs that look alike come from different tables or passages of the source.
Biological target: T1, DCTPP1 (Homo sapiens, UniProt Q9H773)
T1 sequence (Q9H773 1-170): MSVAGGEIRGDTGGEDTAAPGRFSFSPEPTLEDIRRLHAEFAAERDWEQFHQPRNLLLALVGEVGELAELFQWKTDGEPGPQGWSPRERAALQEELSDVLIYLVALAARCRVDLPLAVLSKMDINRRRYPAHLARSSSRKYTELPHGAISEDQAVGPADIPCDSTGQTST
Test: DCTPP1 inhibition assay (malachite green)
Assay type: biochemical
Conditions: 35 nM DCTPP1, 35 μM dCTP, 20 minutes at 22° C.
Description: DCTPP1 catalyzes the hydrolysis of dCTP to dCMP and PPi. By coupling the reaction to pyrophosphatase added in excess PPi is converted to Pi that can be detected by using the malachite green assay reagent. […] DCTPP1 diluted in assay buffer (100 mM Tris-acetate, 100 mM KCl, 10 mM magnesium acetate, 1 mM DTT and 0.005% Tween 20) fortified with E. coli pyrophosphatase (0.2 U/mL) is added to a final concentration of 35 nM. dCTP diluted in assay buffer is added to a final concentration of 35 μM. The reaction mixture is incubated with shaking for 20 minutes at 22° C. To 100 μl reaction mixture is added […] Malachite green assay reagent (0.095% Malachite green in 17% H2SO4, 1.5% Ammonium molybdate, 0.17% Tween 20) added followed by incubation with shaking for 15 minutes at 22° C. The absorbance of the assay plate is read at 630 nm using a SpectraMax plate reader (Molecular Devices).

Compound | IC50 (read-out: IC50 (nM), class) [nM] | IC50 (read-out: IC50) [nM]
1-(4-methoxybenzyl)-4-nitro-1H-benzo[d]imidazole [Compound 2.2.62] | ≥ 1000 | –
5,6-dichloro-2-methyl-4-nitro-1-(4-(trifluoro-l4-boranyl)benzyl)-1H-benzo[d]imidazole [Compound 2.2.48] | < 100 | 39
COc1ccc(Cn2c(C)nc3c([N+](=O)[O-])cccc32)cc1 [Compound 2.2.1, 1-(4-methoxybenzyl)-2-methyl-4-nitro-1H-benzo[d]imidazole] | ≥ 1000 | –
COc1ccc(Cn2c(-c3ccccc3)nc3c([N+](=O)[O-])cccc32)cc1 [Compound 2.2.2, 1-(4-methoxybenzyl)-4-nitro-2-phenyl-1H-benzo[d]imidazole] | ≥ 1000 | –
COc1ccc(Cn2c(Cc3ccccc3)nc3c([N+](=O)[O-])cccc32)cc1 [Compound 2.2.3, 2-benzyl-1-(4-methoxybenzyl)-4-nitro-1H-benzo[d]imidazole] | ≥ 1000 | –
COc1ccc(Cn2c(C(F)(F)F)nc3c([N+](=O)[O-])cccc32)cc1 [Compound 2.2.4, 1-(4-methoxybenzyl)-4-nitro-2-(trifluoromethyl)-1H-benzo[d]imidazole] | ≥ 1000 | –
COc1ccc(Cn2c(OC)nc3c([N+](=O)[O-])cccc32)cc1 [Compound 2.2.5, 2-methoxy-1-(4-methoxybenzyl)-4-nitro-1H-benzo[d]imidazole] | ≥ 1000 | –
COCc1nc2c([N+](=O)[O-])cccc2n1Cc1ccc(OC)cc1 [Compound 2.2.6, 1-(4-methoxybenzyl)-2-(methoxymethyl)-4-nitro-1H-benzo[d]imidazole] | ≥ 1000 | –
COc1ccc(Cn2c(C(C)C)nc3c([N+](=O)[O-])cccc32)cc1 [Compound 2.2.7, 2-isopropyl-1-(4-methoxybenzyl)-4-nitro-1H-benzo[d]imidazole] | ≥ 1000 | –
O=[N+]([O-])c1cccc2c1nc(C(F)(F)F)n2Cc1ccc(B(O)O)cc1 [Compound 2.2.8, (4-((4-nitro-2-(trifluoromethyl)-1H-benzo[d]imidazol-1-yl)methyl)phenyl)boronic acid] | 100 to 500 | 206
Cc1nc2c([N+](=O)[O-])c(F)c(F)cc2n1Cc1ccccc1 [Compound 2.2.10, 1-benzyl-5,6-difluoro-2-methyl-4-nitro-1H-benzo[d]imidazole] | – | 410
Cc1nc2c([N+](=O)[O-])c(F)c(F)cc2n1Cc1ccc(C#N)cc1 [Compound 2.2.11, 4-((5,6-difluoro-2-methyl-4-nitro-1H-benzo[d]imidazol-1-yl)methyl)benzonitrile] | ≥ 1000 | –
Cc1nc2c([N+](=O)[O-])c(F)c(F)cc2n1Cc1ccc(F)cc1 [Compound 2.2.12, 5,6-difluoro-1-(4-fluorobenzyl)-2-methyl-4-nitro-1H-benzo[d]imidazole] | 500 to 1000 | –
Cc1nc2c([N+](=O)[O-])c(F)c(F)cc2n1Cc1ccc(-n2cncn2)cc1 [Compound 2.2.13, 1-(4-(1H-1,2,4-triazol-1-yl)benzyl)-5,6-difluoro-2-methyl-4-nitro-1H-benzo[d]imidazole] | ≥ 1000 | –
Cc1nc2c([N+](=O)[O-])c(F)c(F)cc2n1C(C)c1ccccc1 (stereo not drawn) [Compound 2.2.14, 5,6-difluoro-2-methyl-4-nitro-1-(1-phenylethyl)-1H-benzo[d]imidazole] | ≥ 1000 | –
Cc1nc2c([N+](=O)[O-])c(F)c(F)cc2n1Cc1ccc(B(O)O)cc1 [Compound 2.2.15, (4-((5,6-difluoro-2-methyl-4-nitro-1H-benzo[d]imidazol-1-yl)methyl)phenyl)boronic acid] | 500 to 1000 | –
Cc1nc2c([N+](=O)[O-])c(Cl)c(Cl)cc2n1C(=O)c1ccccc1 [Compound 2.2.18, (5,6-dichloro-2-methyl-4-nitro-1H-benzo[d]imidazol-1-yl)(phenyl)methanone] | 100 to 500 | –
COc1cccc(Cn2c(C)nc3c([N+](=O)[O-])c(Cl)c(Cl)cc32)c1 [Compound 2.2.21, 5,6-dichloro-1-(3-methoxybenzyl)-2-methyl-4-nitro-1H-benzo[d]imidazole] | 100 to 500 | –
Cc1nc2c([N+](=O)[O-])c(Cl)c(Cl)cc2n1Cc1ccc(C=O)cc1 [Compound 2.2.27, 4-((5,6-dichloro-2-methyl-4-nitro-1H-benzo[d]imidazol-1-yl)methyl)benzaldehyde] | 100 to 500 | –
Cc1n[nH]c(C)c1CCn1c(C)nc2c([N+](=O)[O-])c(Cl)c(Cl)cc21 [Compound 2.2.33, 5,6-dichloro-1-(2-(3,5-dimethyl-1H-pyrazol-4-yl)ethyl)-2-methyl-4-nitro-1H-benzo[d]imidazole] | 100 to 500 | –
Cc1nc2c([N+](=O)[O-])c(Cl)c(Cl)cc2n1Cc1ccc(-n2cncn2)cc1 [Compound 2.2.35, 1-(4-(1H-1,2,4-triazol-1-yl)benzyl)-5,6-dichloro-2-methyl-4-nitro-1H-benzo[d]imidazole] | 500 to 1000 | –
Cc1nc2c([N+](=O)[O-])c(Cl)c(Cl)cc2n1Cc1ccc(C(=O)O)cc1 [Compound 2.2.37, 4-((5,6-dichloro-2-methyl-4-nitro-1H-benzo[d]imidazol-1-yl)methyl)benzoic acid] | < 100 | –
COC(=O)c1ccc(Cn2c(C)nc3c([N+](=O)[O-])c(Cl)c(Cl)cc32)cc1 [Compound 2.2.38, methyl 4-((5,6-dichloro-2-methyl-4-nitro-1H-benzo[d]imidazol-1-yl)methyl)benzoate] | 100 to 500 | –
Cc1nc2c([N+](=O)[O-])c(Cl)c(Cl)cc2n1Cc1ccc(C(N)=O)cc1 [Compound 2.2.39, 4-((5,6-dichloro-2-methyl-4-nitro-1H-benzo[d]imidazol-1-yl)methyl)benzamide] | < 100 | –
Cc1nc2c([N+](=O)[O-])c(Cl)c(Cl)cc2n1Cc1ccc(C#N)cc1 [Compound 2.2.40, 4-((5,6-dichloro-2-methyl-4-nitro-1H-benzo[d]imidazol-1-yl)methyl)benzonitrile] | 100 to 500 | –
Cc1nc2c([N+](=O)[O-])c(Cl)c(Cl)cc2n1Cc1ccc(S(C)(=O)=O)cc1 [Compound 2.2.41, 5,6-dichloro-2-methyl-1-(4-(methylsulfonyl)benzyl)-4-nitro-1H-benzo[d]imidazole] | 100 to 500 | –
Cc1nc(Cn2c(C)nc3c([N+](=O)[O-])c(Cl)c(Cl)cc32)cs1 [Compound 2.2.42, 4-((5,6-dichloro-2-methyl-4-nitro-1H-benzo[d]imidazol-1-yl)methyl)-2-methylthiazole] | 100 to 500 | –

Other lines, results leading:

IC50 (read-out: IC50 (nM), class) [nM] | IC50 (read-out: IC50) [nM] | Compound
< 100 | – | Cc1nc2c([N+](=O)[O-])c(Cl)c(Cl)cc2n1-c1ccccc1 [Compound 2.2.16, 5,6-dichloro-2-methyl-4-nitro-1-phenyl-1H-benzo[d]imidazole]
< 100 | 74 | Cc1nc2c([N+](=O)[O-])c(Cl)c(Cl)cc2n1S(=O)(=O)c1ccccc1 [Compound 2.2.17, 5,6-dichloro-2-methyl-4-nitro-1-(phenylsulfonyl)-1H-benzo[d]imidazole]
< 100 | – | Cc1nc2c([N+](=O)[O-])c(Cl)c(Cl)cc2n1Cc1ccccc1 [Compound 2.2.19, 1-benzyl-5,6-dichloro-2-methyl-4-nitro-1H-benzo[d]imidazole]
< 100 | 41 | COc1ccc(Cn2c(C)nc3c([N+](=O)[O-])c(Cl)c(Cl)cc32)cc1 [Compound 2.2.20, 5,6-dichloro-1-(4-methoxybenzyl)-2-methyl-4-nitro-1H-benzo[d]imidazole]
< 100 | – | CC(=O)Oc1ccc(Cn2c(C)nc3c([N+](=O)[O-])c(Cl)c(Cl)cc32)cc1 [Compound 2.2.22, 4-((5,6-dichloro-2-methyl-4-nitro-1H-benzo[d]imidazol-1-yl)methyl)phenyl acetate]
< 100 | – | Cc1nc2c([N+](=O)[O-])c(Cl)c(Cl)cc2n1Cc1ccc(O)cc1 [Compound 2.2.25, 4-((5,6-dichloro-2-methyl-4-nitro-1H-benzo[d]imidazol-1-yl)methyl)phenol]
< 100 | – | Cc1ccc(Cn2c(C)nc3c([N+](=O)[O-])c(Cl)c(Cl)cc32)cc1 [Compound 2.2.26, 5,6-dichloro-2-methyl-1-(4-methylbenzyl)-4-nitro-1H-benzo[d]imidazole]
< 100 | – | Cc1nc2c([N+](=O)[O-])c(Cl)c(Cl)cc2n1Cc1ccc(C=NO)cc1 [Compound 2.2.28, 4-((5,6-dichloro-2-methyl-4-nitro-1H-benzo[d]imidazol-1-yl)methyl)benzaldehyde oxime]
< 100 | – | C=CC(=O)c1ccc(Cn2c(C)nc3c([N+](=O)[O-])c(Cl)c(Cl)cc32)cc1 [Compound 2.2.30, 1-(4-((5,6-dichloro-2-methyl-4-nitro-1H-benzo[d]imidazol-1-yl)methyl)phenyl)prop-2-en-1-one]
< 100 | – | C=CC(=O)Nc1ccc(Cn2c(C)nc3c([N+](=O)[O-])c(Cl)c(Cl)cc32)cc1 [Compound 2.2.32, N-(4-((5,6-dichloro-2-methyl-4-nitro-1H-benzo[d]imidazol-1-yl)methyl)phenyl)acrylamide]
< 100 | – | Cc1nc2c([N+](=O)[O-])c(Cl)c(Cl)cc2n1Cc1ccc(-n2cccn2)cc1 [Compound 2.2.34, 1-(4-(1H-pyrazol-1-yl)benzyl)-5,6-dichloro-2-methyl-4-nitro-1H-benzo[d]imidazole]

Reference: patent publication US20170305893A1 (Thomas Helledays Stiftelse for Medicinsk Forskning, priority 2014, published 2017)
